We go through five compounds from patent US9063046B1, “Hand-held device with reagents and method for detection and diagnostics” (priority 2012, dated 2015).

In one assay the test system is spores of B. atrophaeus. In kind it is cell-based, Bacillus atrophaeus.
For the next assay, the system named is Pixuna virus (PIXV). In kind it is cell-based. The note with it: screening, FIG. 1; guanidium thiocyanate at 3.5 M.
Another assay deals with VACV. Set-up: species or system Vaccinia virus.
The subject of another assay is B. atrophaeus endospores. Set-up: species or system Bacillus atrophaeus.
The test system of a further assay is P. aeruginosa. On the set-up: species or system Pseudomonas aeruginosa.

In the case of `N#CS.N=C(N)N` [Guanidium thiocyanate, guanidium thiocyanate], in the assay on spores of B. atrophaeus, the “killing / inactivating effect on spores” value is reported as “little inactivating effect”. Also, in the assay with Pixuna virus (PIXV), the “inactivating effect on PIXV” value is listed as “little inactivating effect”.

As to `O=CCCCC=O` [glutaraldehyde], in the assay on spores of B. atrophaeus, the “killing / inactivating effect on spores” value is listed as “did not completely kill all of the spores”.

Turning to `OO` [hydrogen peroxide], in the assay on spores of B. atrophaeus, the “killing / inactivating effect on spores” value is listed as “did not completely kill all of the spores”.

Turning to `CC(=O)OO` [peracetic acid], the “ELISA sensitivity for VACV, of untreated controls” value in the assay with VACV was about 50%.

As to cupric ascorbate, in the assay with B. atrophaeus endospores, the “ELISA sensitivity for spores, of untreated controls” value was 80-90%. The “ELISA sensitivity for vegetative bacteria, of untreated controls” value in the assay with P. aeruginosa is on record as 80-90%.
